Data from US9777003B2, “Tricyclic heterocycles as bet protein inhibitors” (Incyte Corporation, priority 2013, dated 2017).

Assays:
BRD4-BD1 = BRD4-BD1 (Homo sapiens (Human), UniProt O60885); assay: BRD4 AlphaScreen assay, BRD4-BD1; type: binding; details: biotin-labeled tetra-acetylated histone H4 peptide, 75 min, room temperature, read-out: BRD4 BD-1 enzyme IC50
In short: (§1)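 AlphaScreen displacement of 50 nM biotin-tetra-acetylated H4 peptide from 3.8 nM BRD4-BD1 (1.25% DMSO) or 20 nM BRD4-BD2 (0.83% DMSO) in HEPES pH 7.4 buffer, 75 min RT. Streptavidin donor/GSH acceptor beads added, 75 min dark; IC50 from log-concentration curve fit.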

BRD4-BD2 = BRD4-BD2 (Homo sapiens (Human), UniProt O60885); assay: BRD4 AlphaScreen assay, BRD4-BD2; type: binding; details: biotin-labeled tetra-acetylated histone H4 peptide, 75 min, room temperature, read-out: BRD4 BD-2 enzyme IC50
In short: as §1

| Structure (SMILES) | IC50 (BRD4-BD1) [nM] | IC50 (BRD4-BD2) [nM] |
| --- | --- | --- |
| Cc1cc2c(cc(NCC3CC3)c3nnc(C)n32)n1Cc1ccccc1 [Example 228, 6-Benzyl-N-(cyclopropylmethyl)-1,7-dimethyl-6H-pyrrolo[2,3-e][1,2,4]triazolo[4,3-a]pyridin-4-amine] | ≤ 100 | ≤ 100 |
| CNC(=O)Nc1cc2c(cc(C)n2Cc2ccccc2)n2c(C)nnc12 [Example 229, 1-(6-Benzyl-1,7-dimethyl-6H-pyrrolo[2,3-e][1,2,4]triazolo[4,3-a]pyridin-4-yl)-3-methylurea] | ≤ 100 | ≤ 100 |
| Cc1cc2c(cc(NC(N)=O)c3nnc(C)n32)n1Cc1cccc(C(F)(F)F)c1 [Example 230, 1-(1,7-Dimethyl-6-(3-(trifluoromethyl)benzyl)-6H-pyrrolo[2,3-e][1,2,4]triazolo[4,3-a]pyridin-4-yl)urea] | ≤ 100 | ≤ 100 |
| Cc1cc2c(cc(NC(N)=O)c3nnc(C)n32)n1Cc1cccc(Cl)c1 [Example 231, 1-(6-(3-Chlorobenzyl)-1,7-dimethyl-6H-pyrrolo[2,3-e][1,2,4]triazolo[4,3-a]pyridin-4-yl)urea] | ≤ 100 | ≤ 100 |
| Cc1cc2c(cc(NC3CCCCC3)c3nnc(C)n32)n1Cc1ccccc1 [Example 232, 6-Benzyl-N-cyclohexyl-1,7-dimethyl-6H-pyrrolo[2,3-e][1,2,4]triazolo[4,3-a]pyridin-4-amine] | 100 to 1000 | 100 to 1000 |
| Cc1cc2c(cc(NC(N)=O)c3nnc(C)n32)n1Cc1cc(F)cc(F)c1 [Example 233, 1-(6-(3,5-Difluorobenzyl)-1,7-dimethyl-6H-pyrrolo[2,3-e][1,2,4]triazolo[4,3-a]pyridin-4-yl)urea] | ≤ 100 | ≤ 100 |
| Cc1cc2c(cc(NC(N)=O)c3nnc(C)n32)n1Cc1ccc(F)c(F)c1 [Example 234, 1-(6-(3,4-Difluorobenzyl)-1,7-dimethyl-6H-pyrrolo[2,3-e][1,2,4]triazolo[4,3-a]pyridin-4-yl)urea] | ≤ 100 | ≤ 100 |
| Cc1cc2c(cc(NC(N)=O)c3nnc(C)n32)n1Cc1cccc(F)c1F [Example 237, 1-(6-(2,3-Difluorobenzyl)-1,7-dimethyl-6H-pyrrolo[2,3-e][1,2,4]triazolo[4,3-a]pyridin-4-yl)urea] | ≤ 100 | ≤ 100 |
| Cc1cc2c(cc(NC(N)=O)c3nnc(C)n32)n1Cc1ccc(F)cc1 [Example 239, 1-(6-(4-Fluorobenzyl)-1,7-dimethyl-6H-pyrrolo[2,3-e][1,2,4]triazolo[4,3-a]pyridin-4-yl)urea] | ≤ 100 | ≤ 100 |
| Cc1cc2c(cc(NCC3CCC3)c3nnc(C)n32)n1Cc1ccccc1 [Example 241, 6-Benzyl-N-(cyclobutylmethyl)-1,7-dimethyl-6H-pyrrolo[2,3-e][1,2,4]triazolo[4,3-a]pyridin-4-amine] | 100 to 1000 | ≤ 100 |
| Cc1cc2c(cc(NCC3CCN(C(=O)OC(C)(C)C)CC3)c3nnc(C)n32)n1Cc1ccccc1 [Example 242, tert-Butyl 4-((6-benzyl-1,7-dimethyl-6H-pyrrolo[2,3-e][1,2,4]triazolo[4,3-a]pyridin-4-ylamino)methyl)piperidine-1-carboxylate] | 100 to 1000 | ≤ 100 |
| Cc1cc2c(cc(NCC3CN(C(=O)OC(C)(C)C)C3)c3nnc(C)n32)n1Cc1ccccc1 [Example 243, tert-Butyl 3-((6-benzyl-1,7-dimethyl-6H-pyrrolo[2,3-e][1,2,4]triazolo[4,3-a]pyridin-4-ylamino)methyl)azetidine-1-carboxylate] | 100 to 1000 | ≤ 100 |
| Cc1cc2c(cc(NCCCN(C)C)c3nnc(C)n32)n1Cc1ccccc1 [Example 245, N1-(6-Benzyl-1,7-dimethyl-6H-pyrrolo[2,3-e][1,2,4]triazolo[4,3-a]pyridin-4-yl)-N3,N3-dimethylpropane-1,3-diamine] | ≤ 100 | ≤ 100 |
| Cc1cc2c(cc(NCCN(C)C)c3nnc(C)n32)n1Cc1ccccc1 [Example 246, N1-(6-Benzyl-1,7-dimethyl-6H-pyrrolo[2,3-e][1,2,4]triazolo[4,3-a]pyridin-4-yl)-N2,N2-dimethylethane-1,2-diamine] | ≤ 100 | ≤ 100 |
| Cc1cc2c(cc(NC(=O)OC(C)(C)C)c3nnc(C)n32)n1Cc1ccccc1 [Example 248, tert-Butyl 6-benzy1-1,7-dimethyl-6H-pyrrolo[2,3-e][1,2,4]triazolo[4,3-a]pyridin-4-ylcarbamate] | 100 to 1000 | ≤ 100 |
| CCNC(=O)Nc1cc2c(cc(C)n2Cc2ccccc2)n2c(C)nnc12 [Example 249, 1-(6-Benzyl-1,7-dimethyl-6H-pyrrolo[2,3-e][1,2,4]triazolo[4,3-a]pyridin-4-yl)-3-ethylurea] | ≤ 100 | ≤ 100 |
| Cc1cc2c(cc(NC(=O)NC(C)C)c3nnc(C)n32)n1Cc1ccccc1 [Example 250, 1-(6-Benzyl-1,7-dimethyl-6H-pyrrolo[2,3-e][1,2,4]triazolo[4,3-a]pyridin-4-yl)-3-isopropylurea] | ≤ 100 | ≤ 100 |
| Cc1cc2c(cc(NC(N)=O)c3nnc(C)n32)n1Cc1ccccc1 [Example 252, 1-(6-Benzyl-1,7-dimethyl-6H-pyrrolo[2,3-e][1,24]triazolo[4,3-a]pyridin-4-yl)urea] | ≤ 100 | ≤ 100 |
| Cc1cc2c(cc(Nc3ncc[nH]3)c3nnc(C)n32)n1Cc1ccccc1 [Example 253, 6-Benzyl-N-(1H-imidazol-2-yl)-1,7-dimethyl-6H-pyrrolo[2,3-e][1,2,4]triazolo[4,3-a]pyridin-4-amine] | ≤ 100 | ≤ 100 |
| Cc1cc2c(cc(NC(N)=O)c3nnc(C)n32)n1Cc1c(F)cccc1F [Example 254, 1-(6-(2,6-Difluorobenzyl)-1,7-dimethyl-6H-pyrrolo[2,3-e][1,2,4]triazolo[4,3-a]pyridin-4-yl)urea] | ≤ 100 | ≤ 100 |
| Cc1cc2c(cc(Nc3ccncc3)c3nnc(C)n32)n1Cc1ccccc1 [Example 255, 6-Benzyl-1,7-dimethyl-N-(pyridin-4-yl)-6H-pyrrolo[2,3-e][1,2,4]triazolo[4,3-a]pyridin-4-amine] | 100 to 1000 | ≤ 100 |
| Cc1cc2c(cc(Nc3cccnc3)c3nnc(C)n32)n1Cc1ccccc1 [Example 256, 6-Benzyl-1,7-dimethyl-N-(pyridin-3-yl)-6H-pyrrolo[2,3-e][1,2,4]triazolo[4,3-a]pyridin-4-amine] | ≤ 100 | ≤ 100 |
| CCNc1cc2c(cc(C)n2Cc2ccccc2)n2c(C)nnc12 [Example 259, 6-Benzyl-N-ethyl-1,7-dimethyl-6H-pyrrolo[2,3-e][1,2,4]triazolo[4,3-a]pyridin-4-amine] | ≤ 100 | ≤ 100 |
| CNc1cc2c(cc(C)n2Cc2ccccc2)n2c(C)nnc12 [Example 261, 6-Benzyl-N,1,7-trimethyl-6H-pyrrolo[2,3-e][1,2,4]triazolo[4,3-a]pyridin-4-amine] | ≤ 100 | ≤ 100 |

Results, then the molecule that gave them:

| IC50 (BRD4-BD1) [nM] | IC50 (BRD4-BD2) [nM] | Structure (SMILES) |
| --- | --- | --- |
| ≤ 100 | ≤ 100 | Cc1cc2c(cc(NC(N)=O)c3nnc(C)n32)n1Cc1cccc(F)c1 [Example 235, 1-(6-(3-Fluorobenzyl)-1,7-dimethyl-6H-pyrrolo[2,3-e][1,2,4]triazolo[4,3-a]pyridin-4-yl)urea] |
| ≤ 100 | ≤ 100 | Cc1cc2c(cc(NC(N)=O)c3nnc(C)n32)n1Cc1ccc(F)cc1F [Example 236, 1-(6-(2,4-Difluorobenzyl)-1,7-dimethyl-6H-pyrrolo[2,3-e][1,2,4]triazolo[4,3-a]pyridin-4-yl)urea] |
| ≤ 100 | ≤ 100 | Cc1cc2c(cc(NC(N)=O)c3nnc(C)n32)n1Cc1ccccc1F [Example 238, 1-(6-(2-Fluorobenzyl)-1,7-dimethyl-6H-pyrrolo[2,3-e][1,2,4]triazolo[4,3-a]pyridin-4-yl)urea] |
| ≤ 100 | ≤ 100 | Cc1cc2c(cc(Nc3ccccn3)c3nnc(C)n32)n1Cc1ccccc1 [Example 240, 6-benzyl-1,7-Dimethyl-N-(pyridin-2-yl)-6H-pyrrolo[2,3-e][1,2,4]triazolo[4,3-a]pyridin-4-amine] |
| ≤ 100 | ≤ 100 | Cc1cc2c(cc(NC3CN(C(=O)OC(C)(C)C)C3)c3nnc(C)n32)n1Cc1ccccc1 [Example 244, tert-Butyl 3-(6-benzyl-1,7-dimethyl-6H-pyrrolo[2,3-e][1,2,4]triazolo[4,3-a]pyridin-4-ylamino)azetidine-1-carboxylate] |
| ≤ 100 | ≤ 100 | Cc1cc2c(cc(N[C@H]3C[C@H](O)C3)c3nnc(C)n32)n1Cc1ccccc1 [Example 247, trans-3-(6-Benzyl-1,7-dimethyl-6H-pyrrolo[2,3-e][1,2,4]triazolo[4,3-a]pyridin-4-ylamino)cyclobutanol] |
| 100 to 1000 | ≤ 100 | Cc1cc2c(cc(NC(=O)N(C)C)c3nnc(C)n32)n1Cc1ccccc1 [Example 251, 3-(6-Benzyl-1,7-dimethyl-6H-pyrrolo[2,3-e][1,2,4]triazolo[4,3-a]pyridin-4-yl)-1,1-dimethylurea] |
| ≤ 100 | ≤ 100 | Cc1cc2c(cc(NCCCN)c3nnc(C)n32)n1Cc1ccccc1 [Example 257, N1-(6-Benzyl-1,7-dimethyl-6H-pyrrolo[2,3-e][1,2,4]triazolo[4,3-a]pyridin-4-yl)propane-1,3-diamine] |
| ≤ 100 | ≤ 100 | Cc1cc2c(cc(NCCN)c3nnc(C)n32)n1Cc1ccccc1 [Example 258, N1-(6-benzyl-1,7-dimethyl-6H-pyrrolo[2,3-e][1,2,4]triazolo[4,3-a]pyridin-4-yl)ethane-1,2-diamine] |
| ≤ 100 | ≤ 100 | Cc1cc2c(cc(Nc3ccccc3)c3nnc(C)n32)n1Cc1ccccc1 [Example 260, 6-Benzyl-1,7-dimethyl-N-phenyl-6H-pyrrolo[2,3-e][1,2,4]triazolo[4,3-a]pyridin-4-amine] |
